Starred links: 1 amine or outer side, 2 acyl side, 3 side chain; linkers in the order of their positions; H or OH if unused. Non-standard residues stand in square brackets, D forms with d. Residues, ends and D or L forms follow the SMILES beside them. Groups on a side chain read outwards from the residue. *: point of attachment. γGlu = O=C(O)[C@H](CCC(=O)[*:2])N[*:1]; Palmitoyl = CCCCCCCCCCCCCCCC(=O)*; Aib = CC(C)(N)C(=O)O
What was measured:
human CRF2α receptor = target: T1, human CRF2α receptor (Homo sapiens, UniProt Q13324); assay: cAMP agonism at human CRF2α receptor in TeloHEAC cells, FA modified peptides (Example 19.9); assay type: cell-based; details: 0% HSA, relative to urocortin 2
T1 construct: expressed in transfected cells; host or cells: TeloHEAC
T1 sequence (Q13324 1-411): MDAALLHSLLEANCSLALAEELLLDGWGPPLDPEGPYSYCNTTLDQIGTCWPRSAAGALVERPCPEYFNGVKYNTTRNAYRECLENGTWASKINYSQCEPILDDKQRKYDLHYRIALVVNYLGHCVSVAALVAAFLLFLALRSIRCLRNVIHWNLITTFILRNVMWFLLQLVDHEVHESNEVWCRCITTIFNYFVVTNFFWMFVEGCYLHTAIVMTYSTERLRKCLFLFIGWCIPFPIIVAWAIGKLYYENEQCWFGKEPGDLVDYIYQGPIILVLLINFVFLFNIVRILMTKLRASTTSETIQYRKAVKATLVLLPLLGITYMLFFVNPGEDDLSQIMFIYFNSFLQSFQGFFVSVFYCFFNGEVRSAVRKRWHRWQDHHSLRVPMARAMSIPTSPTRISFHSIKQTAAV
Procedure, shortened: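 Efficacy and EC50 are referenced to 100 nM urocortin 2 as 100%, with cAMP measured as the 665/620 nm HTRF ratio after 1 h at room temperature. Compounds (0.5 mM DMSO stock, 16 twofold dilutions) acted 30 min at 37 °C on CRF2α-expressing TeloHEAC cells, buffer containing IBMX and 0% or 0.2% HSA.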

CRF1R receptor = target: T2, CRF1R receptor (Homo sapiens, UniProt P34998); assay: cAMP activity at anti-target CRF1R, CHO-K1 cell line clone 2 (Example 19.10); assay type: cell-based; details: ratio of CRF1 EC50 to CRF2 EC50
T2 construct: host or cells: CHO-K1 clone 2
T2 sequence (P34998 24-415): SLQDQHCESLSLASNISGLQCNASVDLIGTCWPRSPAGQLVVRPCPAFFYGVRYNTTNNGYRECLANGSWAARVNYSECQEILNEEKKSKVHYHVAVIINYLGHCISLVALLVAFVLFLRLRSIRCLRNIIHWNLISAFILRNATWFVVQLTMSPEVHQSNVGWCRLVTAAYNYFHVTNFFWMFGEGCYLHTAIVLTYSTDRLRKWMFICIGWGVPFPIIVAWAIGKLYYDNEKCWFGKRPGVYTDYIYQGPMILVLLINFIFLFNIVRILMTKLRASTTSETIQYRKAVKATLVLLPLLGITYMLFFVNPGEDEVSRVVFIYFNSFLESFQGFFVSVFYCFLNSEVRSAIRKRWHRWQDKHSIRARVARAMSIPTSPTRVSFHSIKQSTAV
Procedure, shortened: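 A CRF1R-overexpressing CHO-K1 line (clone 2) was grown in F12/10% FBS/G418 and frozen in aliquots before use. The cAMP assay followed the preceding procedure, with 100% activation defined by Sauvagine at 100 nM.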

EC50 (human CRF2α receptor) [nM] | CRF1/CRF2 ratio (CRF1R receptor) | SMILES
0.9 | 2 | CCCCCCCCCCCCCCCC(=O)N[C@@H](CCC(=O)NCCCC[C@H](NC(=O)[C@H](CC(C)C)NC(=O)[C@H](CCCCN)NC(=O)[C@@H](NC(=O)[C@@H]1CCCN1C(=O)[C@H](NC(=O)[C@H](CC(=O)O)NC(=O)[C@H](CC(C)C)NC(=O)[C@H](CO)NC(=O)[C@H](CC(C)C)NC(=O)[C@@H](NC(=O)[C@@H](N)[C@@H](C)CC)C(C)C)C(C)C)[C@@H](C)CC)C(=O)N[C@@H](CCC(N)=O)C(=O)N[C@H](C(=O)N[C@@H](CC(C)C)C(=O)N[C@@H](CC(C)C)C(=O)N[C@@H](CCCCN)C(=O)N[C@@H](CCC(N)=O)C(=O)N[C@@H](CCC(=O)O)C(=O)N[C@@H](CCCNC(=N)N)C(=O)N[C@@H](CCC(N)=O)C(=O)N[C@@H](CCCCN)C(=O)NC(C)(C)C(=O)N[C@@H](CCC(N)=O)C(=O)N[C@@H](CCCNC(=N)N)C(=O)N[C@@H](CCC(N)=O)C(=O)N[C@@H](CCC(N)=O)C(=O)N[C@@H](C)C(=O)N[C@@H](CCC(=O)O)C(=O)N[C@@H](CCCCN)C(=O)N[C@@H](CC(N)=O)C(=O)N[C@@H](CCCCN)C(=O)N[C@@H](CCC(N)=O)C(=O)N[C@H](C(=O)N[C@@H](CC(C)C)C(=O)N[C@@H](C)C(=O)N[C@@H](CCC(N)=O)C(=O)N[C@H](C(N)=O)C(C)C)[C@@H](C)CC)[C@@H](C)CC)C(=O)O [compound 208] (H-IVLSLD[dV]PIKLK([γGlu-Palmitoyl])QILLKQERQK[Aib]QRQQAEKNKQILAQV-NH2; N-terminus assumed)
8.62 | 3 | CCCCCCCCCCCCCCCC(=O)N[C@@H](CCC(=O)NCCCC[C@H](NC(=O)[C@H](CC(C)C)NC(=O)[C@H](CCCCN)NC(=O)[C@@H](NC(=O)[C@@H]1CCCN1C(=O)[C@H](NC(=O)[C@H](CC(=O)O)NC(=O)[C@H](CC(C)C)NC(=O)[C@H](CO)NC(=O)[C@H](CC(C)C)NC(=O)[C@@H](NC(=O)[C@@H](N)[C@@H](C)CC)C(C)C)C(C)C)[C@@H](C)CC)C(=O)N[C@@H](CCC(N)=O)C(=O)N[C@H](C(=O)N[C@@H](CC(C)C)C(=O)N[C@@H](CC(C)C)C(=O)N[C@@H](CCCCN)C(=O)N[C@@H](CCC(N)=O)C(=O)N[C@@H](CCC(=O)O)C(=O)N[C@@H](CCCNC(=N)N)C(=O)N[C@@H](CCC(N)=O)C(=O)N[C@@H](CCCCN)C(=O)N[C@@H](CCCCN)C(=O)NC(C)(C)C(=O)N[C@@H](CCCNC(=N)N)C(=O)N[C@@H](CCC(N)=O)C(=O)N[C@@H](CCCCN)C(=O)N[C@@H](C)C(=O)N[C@@H](CCC(=O)O)C(=O)N[C@@H](CCCCN)C(=O)N[C@@H](CC(N)=O)C(=O)N[C@@H](CCCCN)C(=O)N[C@@H](CCC(N)=O)C(=O)N[C@H](C(=O)N[C@@H](CC(C)C)C(=O)N[C@@H](C)C(=O)N[C@@H](CCC(N)=O)C(=O)N[C@H](C(N)=O)C(C)C)[C@@H](C)CC)[C@@H](C)CC)C(=O)O [compound 209] (H-IVLSLD[dV]PIKLK([γGlu-Palmitoyl])QILLKQERQKK[Aib]RQKAEKNKQILAQV-NH2; N-terminus assumed)
1.23 | 1 | CCCCCCCCCCCCCCCC(=O)N[C@@H](CCC(=O)NCCCC[C@H](NC(=O)[C@H](CC(C)C)NC(=O)[C@H](CCCCN)NC(=O)[C@@H](NC(=O)[C@@H]1CCCN1C(=O)[C@H](NC(=O)[C@H](CC(=O)O)NC(=O)[C@H](CC(C)C)NC(=O)[C@H](CO)NC(=O)[C@H](CC(C)C)NC(=O)[C@@H](NC(=O)[C@@H](N)[C@@H](C)CC)C(C)C)C(C)C)[C@@H](C)CC)C(=O)N[C@@H](CCC(N)=O)C(=O)N[C@H](C(=O)N[C@@H](CC(C)C)C(=O)N[C@@H](CC(C)C)C(=O)N[C@@H](CCCCN)C(=O)N[C@@H](CCC(N)=O)C(=O)N[C@@H](CCC(=O)O)C(=O)N[C@@H](CCCNC(=N)N)C(=O)N[C@@H](CCC(N)=O)C(=O)N[C@@H](CCCCN)C(=O)N[C@@H](CCCCN)C(=O)N[C@@H](CCC(N)=O)C(=O)N[C@@H](CCCNC(=N)N)C(=O)N[C@@H](CCC(=O)O)C(=O)N[C@@H](CCC(N)=O)C(=O)N[C@@H](C)C(=O)N[C@@H](CCC(=O)O)C(=O)N[C@@H](CCCCN)C(=O)N[C@@H](CC(N)=O)C(=O)N[C@@H](CCCCN)C(=O)N[C@@H](CCC(N)=O)C(=O)N[C@H](C(=O)N[C@@H](CC(C)C)C(=O)N[C@@H](CCC(=O)O)C(=O)N[C@@H](CCC(N)=O)C(=O)N[C@H](C(N)=O)C(C)C)[C@@H](C)CC)[C@@H](C)CC)C(=O)O [compound 212] (H-IVLSLD[dV]PIKLK([γGlu-Palmitoyl])QILLKQERQKKQREQAEKNKQILEQV-NH2; N-terminus assumed)
4.15 | 1 | CCCCCCCCCCCCCCCC(=O)N[C@@H](CCC(=O)NCCCC[C@H](NC(=O)[C@H](CC(C)C)NC(=O)[C@H](CCCCN)NC(=O)[C@@H](NC(=O)[C@@H]1CCCN1C(=O)[C@H](NC(=O)[C@H](CC(=O)O)NC(=O)[C@H](CC(C)C)NC(=O)[C@H](CO)NC(=O)[C@H](CC(C)C)NC(=O)[C@@H](NC(=O)[C@@H](N)[C@@H](C)CC)C(C)C)C(C)C)[C@@H](C)CC)C(=O)N[C@@H](CCC(N)=O)C(=O)N[C@H](C(=O)N[C@@H](CC(C)C)C(=O)N[C@@H](CC(C)C)C(=O)N[C@@H](CCCCN)C(=O)N[C@@H](CCC(N)=O)C(=O)N[C@@H](CCC(=O)O)C(=O)N[C@@H](CCCNC(=N)N)C(=O)N[C@@H](CCC(N)=O)C(=O)N[C@@H](CCCCN)C(=O)N[C@@H](CCCCN)C(=O)N[C@@H](CCC(N)=O)C(=O)N[C@@H](CCCNC(=N)N)C(=O)N[C@@H](CCC(N)=O)C(=O)N[C@@H](CCC(N)=O)C(=O)N[C@@H](C)C(=O)N[C@@H](CCC(=O)O)C(=O)N[C@@H](CCCCN)C(=O)N[C@@H](CC(N)=O)C(=O)N[C@@H](CCCCN)C(=O)N[C@@H](CCC(N)=O)C(=O)N[C@H](C(=O)N[C@@H](CC(C)C)C(=O)N[C@@H](C)C(=O)N[C@@H](CCC(N)=O)C(=O)N[C@H](C(N)=O)C(C)C)[C@@H](C)CC)[C@@H](C)CC)C(=O)O [compound 214] (H-IVLSLD[dV]PIKLK([γGlu-Palmitoyl])QILLKQERQKKQRQQAEKNKQILAQV-NH2; N-terminus assumed)
1.58 | 4 | CCCCCCCCCCCCCCCC(=O)N[C@@H](CCC(=O)NCCCC[C@H](NC(=O)[C@H](CC(C)C)NC(=O)CNC(=O)[C@@H](NC(=O)[C@@H]1CCCN1C(=O)[C@H](NC(=O)[C@H](CC(=O)O)NC(=O)[C@H](CC(C)C)NC(=O)[C@H](CO)NC(=O)[C@H](CC(C)C)NC(=O)[C@@H](NC(=O)[C@@H](N)[C@@H](C)CC)C(C)C)C(C)C)[C@@H](C)CC)C(=O)N[C@@H](CCC(N)=O)C(=O)N[C@H](C(=O)N[C@@H](CC(C)C)C(=O)N[C@@H](CC(C)C)C(=O)N[C@@H](CCCCN)C(=O)N[C@@H](CCC(N)=O)C(=O)N[C@@H](CCC(=O)O)C(=O)N[C@@H](CCCNC(=N)N)C(=O)N[C@@H](CCC(N)=O)C(=O)N[C@@H](CCCCN)C(=O)N[C@@H](CCCCN)C(=O)NC(C)(C)C(=O)N[C@@H](CCCNC(=N)N)C(=O)N[C@@H](CCC(=O)O)C(=O)N[C@@H](CCC(N)=O)C(=O)N[C@@H](C)C(=O)N[C@@H](CCC(=O)O)C(=O)N[C@@H](CCCCN)C(=O)N[C@@H](CC(N)=O)C(=O)N[C@@H](CCCCN)C(=O)N[C@@H](CCCNC(=N)N)C(=O)N[C@H](C(=O)N[C@@H](CC(C)C)C(=O)N[C@@H](CCC(=O)O)C(=O)N[C@@H](CCCNC(=N)N)C(=O)N[C@H](C(N)=O)C(C)C)[C@@H](C)CC)[C@@H](C)CC)C(=O)O [compound 218] (H-IVLSLD[dV]PIGLK([γGlu-Palmitoyl])QILLKQERQKK[Aib]REQAEKNKRILERV-NH2)
